SMILES strings stand for the structures.

The conditions of data set [1]: healthy person, intake of oxidized coenzyme Q10; cited from earlier work.
Data set [2] in a line: Reduced coenzyme Q10 ratio in plasma after oral administration, 62-week-old SD rats (Example 2). It counts as in vivo. From the text:
(§1) The ratio of the reduced form to the total coenzyme Q10 is generally determined by a method comprising quantifying oxidized coenzyme Q10 and reduced coenzyme Q10 in a sample by high performance liquid chromatography (HPLC) using an UV detector and calculating the ratio from the volume ratio obtained, or a method comprising using an HPLC system incorporated with an electrochemical detector for calculating the ratio of oxidized coenzyme Q10 and reduced coenzyme Q10 from the peak area. The HPLC system incorporated with an electrochemical detector makes it possible to specifically determine oxidation-reduction substances and has high sensitivity, and thus is highly useful for determining trace amount of reduced coenzyme Q10 in the living body or samples. In the present invention, all the reduced coenzyme Q10 ratios are determined by the HPLC system incorporated with an electrochemical detector.
(§2) In these Examples, the ratio of reduced coenzyme Q10 to the total coenzyme Q10 was determined using the HPLC system incorporated with an electrochemical detector (product of Shiseido Co., Ltd.) and a reduction column (product of Shiseido Co., Ltd.).
(§3) 10 SD rats (62-week-old, males) were divided into 2 groups each consisted of 5 rats so that each group had the same average body weight value. To one group, a solution of reduced coenzyme Q10in soybean oil (containing about 1% of oxidized coenzyme Q10) was orally administered, and to the other group, a solution of oxidized coenzyme Q10 in soybean oil was orally administered, each at the dose of 100 mg/kg body weight in coenzyme Q10 equivalent. Then, the reduced coenzyme Q10 ratio in plasma was determined with time lapses. Blood was collected after 1, 2, 4 and 8 hours of oral administration, and centrifuged to obtain plasma. The concentration of reduced coenzyme Q10 and oxidized coenzyme Q10 in the obtained plasma was quantified using HPLC in order to determine the ratio of the reduced form.

A short description of data set [3]: Reduced coenzyme Q10 ratio in plasma after oral administration, 54-week-old SD rats (Example 1). It counts as in vivo.
Source text: as §1, §2
as §3, with “(54-week-old,” for “(62-week-old,”, “Q10 in” for “Q10in”

Data set [4] is described as follows: Reduced coenzyme Q10 ratio in plasma after oral administration, 5-week-old SD rats (Reference Example 1). It counts as in vivo.
Source text: as §1, with “The HPLC system incorporated with an electrochemical detector makes it possible to specifically determine oxidation-reduction substances and has high sensitivity, and thus is highly useful for determining trace amount of reduced coenzyme Q10 in the living body or samples.” left out
as §2
10 SD rats (5-week-old, males) were divided into 2 groups each consisted of 5 rats so that each group had the same average body weight value. […] Then, the reduced coenzyme Q10 ratio in plasma was determined with time lapses. […] The concentration of reduced coenzyme Q10 and oxidized coenzyme Q10 in the obtained plasma was quantified using HPLC in order to determine the reduced coenzyme Q10 ratio.

Data set [5] is described as follows: Reduced coenzyme Q10 ratio in plasma of healthy aged people fed soft capsules (Example 3). Format: in vivo, human. To be noted: healthy aged people 64 to 77 years old, two soft capsules (100 mg of coenzyme Q10), since 2 hours after administration.
Source text: as §1, with “The HPLC system incorporated with an electrochemical detector makes it possible to specifically determine oxidation-reduction substances and has high sensitivity, and thus is highly useful for determining trace amount of reduced coenzyme Q10 in the living body or samples.” left out
as §2
Two soft capsules obtained in Preparation Example 5 and Comparative Preparation Example 1 (containing 100 mg of coenzyme Q10) were fed to two groups of healthy aged people (20 male and female individuals in each group, age: 64 to 77 years old), and the effect on the reduced coenzyme Q10 ratio in plasma was evaluated.

The mark [6] stands for this setting: male, SD, rat, in vivo, po, 100 mg/kg, 1 h.
The mark [7] stands for this setting: male, SD, rat, in vivo, po, 100 mg/kg, 8 h.

For the compound `COC1=C(OC)C(=O)C(C/C=C(\C)CCC=C(C)CCC=C(C)CCC=C(C)CCC=C(C)CCC=C(C)CCC=C(C)CCC=C(C)CCC=C(C)CCC=C(C)C)=C(C)C1=O` [oxidized coenzyme Q10], the “amount of reduced coenzyme Q10 in plasma” value in data set [1] is recorded as “increased”. Moreover, the “ratio of reduced coenzyme Q10 to oxidized coenzyme Q10 in plasma” value in data set [1] is given as “unchanged”. In addition, the “ratio of the reduced form of coenzyme Q10 in plasma” value in data set [2] (setting [6]) was “about 74%”; in data set [2] (setting [7]), “about 78%”; in data set [3] (setting [6]), “about 76%”; in data set [3] (setting [7]), “about 87%”. Further, the “difference in the reduced coenzyme Q10 ratio in plasma between administration of reduced and oxidized coenzyme Q10” value in data set [4] (rat, in vivo, po, 100 mg/kg) is “almost no difference”.

Take `COc1c(O)c(C)c(C/C=C(\C)CC/C=C(\C)CC/C=C(\C)CC/C=C(\C)CC/C=C(\C)CC/C=C(\C)CC/C=C(\C)CC/C=C(\C)CC/C=C(\C)CCC=C(C)C)c(O)c1OC` [reduced coenzyme Q10]: the “ratio of the reduced form of coenzyme Q10 in plasma” value in data set [2] (62-week-old male SD rats, 100 mg/kg oral in soybean oil, over 1-8 hours) was “around 90%”; in data set [3] (54-week-old male SD rats, 100 mg/kg oral in soybean oil, over 1-8 hours), “around 90%”. Also, the “ratio of reduced coenzyme Q10 to the total coenzyme Q10 in plasma, time course” value in data set [5] was “increased with the lapse of time”. For the same compound, the “difference in the reduced coenzyme Q10 ratio in plasma between administration of reduced and oxidized coenzyme Q10” value in data set [4] (5-week-old male SD rats, 100 mg/kg oral in soybean oil, after 2 hours or later of administration) was “almost no difference”.

These data come from US20080254016A1, “Composition For Increasing Anti-Oxidation Activity In Blood” (Kaneka Corporation, priority 2005, published 2008).
